Measurements taken from patent publication US10738028B2, “Spiro three-membered ring, spiro five-membered ring peptide deformylase inhibitor and use thereof in antibacteria and anti-tumor” (priority 2016, dated 2020).
In brackets after ≈: the same amount, converted by molar mass. Like-named read-outs stand apart in the source and are kept apart here.

Columns and labels:
Format in all cases: cell-based
[1] = test system: BEL-7402 liver cancer cell line; test: CCK-8 proliferation inhibition; conditions: concentration of 30 μM
Text: (§1) 2. The present invention adopts the CCK-8 method to determine the proliferation inhibition effect of the spiro three-membered ring, spiro five-membered ring peptide deformylase inhibitor as described in Examples 1-80 against colorectal cancer cells, lung cancer cells, gastric cancer cells, liver cancer cells, and the like. […] The compound having the best activity synthesized in Example 64 was further tested for its inhibitory activity against other tumor cells including T cell leukemia, acute myeloid leukemia, cervical cancer, breast cancer, prostate cancer and osteosarcoma, and the like (see Table 7).
(§2) (1) HCT-116 colorectal cancer cell line, A549 lung cancer cell line, MGC-803 gastric cancer cell line, BEL-7402 liver cancer cell line, Jurkat T cell leukemia cell line, HL60 acute myeloid leukemia cell line, Hela cervical cancer cell line, MCF-7 breast cancer cell line, PC3 prostate cancer cell line and SAOS-2 osteosarcoma cell line were made into single cell suspension, 180 μL of which was inoculated into 96-well culture plate, which was cultured overnight in CO2 incubator (37° C., 5% CO2, 95% air).
(§3) (2) Each of the spiro three-membered ring, spiro five membered ring peptide deformylase inhibitors was dissolved in DMSO, and was further formulated into drug solution with required different final concentration using corresponding cell culture medium. The drug solutions were added to the above cells respectively (20 μL/well), with the control group added with 1‰ DMSO, and cultured in a CO2 incubator for 72 hours.
(§4) (3) After incubation for 72 hours, the culture solution was decanted, and 100 μL of 1:10 diluted CCK-8 solution was added.
(§5) Wherein, in step (1), the concentration of the single cell suspension was 2000 cells/well.
(§6) Wherein, in step (2), HCT-116 cells were cultured in McCoy's 5A medium (containing 10% newborn bovine serum, 1% double antibody); A549 and PC3 cells were cultured in F12 medium (containing 10% newborn bovine serum, 1% double antibody); MGC-803, BEL-7402, SAOS-2, Jurkat and HL60 cells were cultured in 1640 medium (containing 10% newborn bovine serum, 1% double antibody); and MCF-7 and Hela cells were cultured in DMEM high glucose medium (containing 10% newborn bovine serum, 1% double antibody).

[2] = test system: MGC-803 gastric cancer cell line; test: CCK-8 proliferation inhibition; conditions: Homo sapiens, MGC-803, 72 h, concentration of 30 μM
Text: as §1, §2, §3, §4, §5, §6

[3] = test system: A549 lung cancer cell line; test: CCK-8 proliferation inhibition; conditions: Homo sapiens, A549, 72 h, concentration of 30 μM
Text: as §1, §2, §3, §4, §5, §6

[4] = test system: HCT-116 colorectal cancer cell line; test: CCK-8 proliferation inhibition; conditions: concentration of 30 μM, 72 hours, CCK-8
In short: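 Cells seeded at 2000 cells/well, cultured overnight at 37 °C, 5% CO2, then exposed to compound (DMSO; control 1‰ DMSO) for 72 h in McCoy's 5A with 10% newborn bovine serum. Viability read with 1:10 diluted CCK-8.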

[5] = test system: Enterococcus faecium (EFM); test: MIC, two-fold agar dilution (CLSI), clinical isolates
In short: (§7)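 CLSI two-fold agar dilution; MIC of test samples read per tested strain.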

[6] = test system: methicillin-resistant Staphylococcus aureus (MRSA); test: as above
In short: as §7

[7] = test system: methicillin-sensitive Staphylococcus epidermidis (MSSE); test: as above
In short: as §7

[8] = test system: Moraxella catarrhalis (BCA); test: as above; conditions: for MIC: Moraxella catarrhalis
In short: as §7

[9] = test system: Enterococcus faecalis (EFA); test: as above
In short: as §7

[10] = test system: Escherichia coli (including ESBLs, non-ESBLs); test: as above
In short: as §7

[11] = test system: methicillin-resistant Staphylococcus epidermidis (MRSE); test: as above
In short: as §7

[12] = test system: Streptococcus pneoumoniae (SPN); test: as above
In short: as §7

[13] = test system: methicillin-sensitive Staphylococcus aureus (MSSA); test: as above
In short: as §7

In the case of CCCC[C@H](CN(O)C=O)C(=O)N1CC2(CC2)C[C@H]1C(=O)Nc1nccs1 [Example 22], the inhibition at 30 µM ([1]; Homo sapiens, Bel-7402, 72 h) is reported as over 50%, the “Inhibition of proliferation, Liver cancer BEL-7402” value ([1]; 72 hours, 30 µM) is reported as 51% and the inhibition at 30 µM [2] is reported as 14%. For the same molecule, the inhibition at 30 µM [3] was 21%, the inhibition at 30 µM ([4]; Homo sapiens, HCT-116, 72 h, read-out: HCT116 inhibition rate/%) was over 50% and the HCT116 inhibition rate/% ([4]; 30 µM) was 52%. The MIC (anti-bacterial activity) ([5]; strain EFM 15-1) was 0.5 µg/mL (≈ 1.27 µM), the MIC (anti-bacterial activity) ([5]; strain EFM 15-2) was 2 µg/mL (≈ 5.07 µM) and the MIC (anti-bacterial activity) ([5]; strain EFM 15-3) was 0.25 µg/mL (≈ 0.634 µM). For the same molecule, the MIC (anti-bacterial activity) ([5]; strain EFM 15-4) was 0.5 µg/mL (≈ 1.27 µM), the MIC (anti-bacterial activity) ([5]; strain EFM 15-5) was 0.25 µg/mL (≈ 0.634 µM) and the MIC (anti-bacterial activity) ([5]; strain EFM 15-6) was 0.5 µg/mL (≈ 1.27 µM). The MIC (anti-bacterial activity) ([6]; strain MRSA 15-1) was 0.06 µg/mL (≈ 0.152 µM), the MIC (anti-bacterial activity) ([6]; strain MRSA 15-2) was 0.25 µg/mL (≈ 0.634 µM) and the MIC (anti-bacterial activity) ([6]; strain MRSA 15-3) was 0.06 µg/mL (≈ 0.152 µM). The MIC (anti-bacterial activity) ([6]; strain MRSA 15-4) was 0.25 µg/mL (≈ 0.634 µM), the MIC (anti-bacterial activity) ([7]; strain MSSE 15-3) was 0.06 µg/mL (≈ 0.152 µM) and the MIC (anti-bacterial activity) ([7]; strain MSSE 15-4) was 0.03 µg/mL (≈ 0.076 µM). For the same molecule, the MIC (anti-bacterial activity) ([7]; strain MSSE 15-5) was 0.03 µg/mL (≈ 0.076 µM), the MIC (anti-bacterial activity) ([7]; strain MSSE 15-6) was 0.03 µg/mL (≈ 0.076 µM) and the MIC ([8]; 7 clinical isolates, range over strains, read-out: Moraxella catarrhalis (n = 7) MIC) was 0.06 to 0.5 µg/mL (≈ 0.152 to 1.27 µM). For the same molecule, the MIC ([8]; lowest MIC reached, read-out: minimum inhibitory concentration against Moraxella catarrhalis, as low as) was at least 0.06 µg/mL, the MIC (anti-bacterial activity) ([8]; strain BCA 14-1) was 0.5 µg/mL (≈ 1.27 µM) and the MIC (anti-bacterial activity) ([8]; strain BCA 14-4) was 0.25 µg/mL (≈ 0.634 µM). It also gave an MIC (anti-bacterial activity) ([8]; strain BCA 14-5) of 0.06 µg/mL (≈ 0.152 µM), an MIC (anti-bacterial activity) ([8]; strain BCA 14-6) of 0.06 µg/mL (≈ 0.152 µM) and an MIC (anti-bacterial activity) ([8]; strain BCA 14-7) of 0.125 µg/mL (≈ 0.317 µM). It also gave an MIC (anti-bacterial activity) ([8]; strain BCA 14-8) of 0.5 µg/mL (≈ 1.27 µM), an MIC (anti-bacterial activity) ([8]; strain BCA 14-10) of 0.125 µg/mL (≈ 0.317 µM) and an MIC (anti-bacterial activity) ([9]; strain EFA 15-1) of 2 µg/mL (≈ 5.07 µM). The MIC (anti-bacterial activity) ([9]; strain EFA 15-2) was 2 µg/mL (≈ 5.07 µM), the MIC (anti-bacterial activity) ([9]; strain EFA 15-3) was 1 µg/mL (≈ 2.53 µM) and the MIC (anti-bacterial activity) ([9]; strain EFA 15-4) was 2 µg/mL (≈ 5.07 µM). For the same molecule, the MIC (anti-bacterial activity) ([9]; strain EFA 15-5) was 2 µg/mL (≈ 5.07 µM), the MIC (anti-bacterial activity) ([9]; strain EFA 15-6) was 2 µg/mL (≈ 5.07 µM) and the MIC (anti-bacterial activity) ([9]; strain EFA 15-9) was 2 µg/mL (≈ 5.07 µM). For the same molecule, the MIC (anti-bacterial activity) ([10]; strain ECO+ 15-1) was 16 µg/mL (≈ 40.6 µM), the MIC (anti-bacterial activity) ([10]; strain ECO+ 15-2) was 64 µg/mL (≈ 162 µM) and the MIC (anti-bacterial activity) ([10]; strain ECO+ 15-3) was 32 µg/mL (≈ 81.1 µM). It also gave an MIC (anti-bacterial activity) ([10]; strain ECO+ 15-4) of 32 µg/mL (≈ 81.1 µM), an MIC (anti-bacterial activity) ([10]; strain ECO− 15-1) of 32 µg/mL (≈ 81.1 µM) and an MIC (anti-bacterial activity) ([10]; strain ECO− 15-2) of 64 µg/mL (≈ 162 µM). For the same molecule, the MIC (anti-bacterial activity) ([10]; strain ECO− 15-3) was 64 µg/mL (≈ 162 µM), the MIC (anti-bacterial activity) ([10]; strain ECO− 15-4) was 64 µg/mL (≈ 162 µM) and the MIC (anti-bacterial activity) ([11]; strain MRSE 15-1) was 0.03 µg/mL (≈ 0.076 µM). The MIC (anti-bacterial activity) ([11]; strain MRSE 15-2) was 0.06 µg/mL (≈ 0.152 µM), the MIC (anti-bacterial activity) ([11]; strain MRSE 15-3) was 0.125 µg/mL (≈ 0.317 µM) and the MIC (anti-bacterial activity) ([11]; strain MRSE 15-7) was 0.125 µg/mL (≈ 0.317 µM). It also gave an MIC (anti-bacterial activity) ([12]; strain SPN 16-2) of 2 µg/mL (≈ 5.07 µM), an MIC (anti-bacterial activity) ([12]; strain SPN 16-4) of 0.5 µg/mL (≈ 1.27 µM) and an MIC (anti-bacterial activity) ([13]; strain MSSA 15-3) of 0.06 µg/mL (≈ 0.152 µM). For the same molecule, the MIC (anti-bacterial activity) ([13]; strain MSSA 15-4) was 0.06 µg/mL (≈ 0.152 µM), the MIC (anti-bacterial activity) ([13]; strain MSSA 15-5) was 0.03 µg/mL (≈ 0.076 µM) and the MIC (anti-bacterial activity) ([13]; strain MSSA 15-6) was 0.06 µg/mL (≈ 0.152 µM).
